From patent publication US12522572B2, “Isoxazole hydroxamic acids as histone deacetylase 6 inhibitors” (The George Washington University, A Congressionally …, priority 2017, dated 2026)
pIC50: −log10 of the molar value. Entries after “also recorded” stand apart in the source; their conditions may differ.

Key:
Human HDAC1 = target: T1, Human HDAC1 (Homo sapiens, UniProt Q13547); assay: HDAC isoform inhibition, HDAC1; assay type: biochemical; settings: duplicate 10-dose IC50 mode, 3-fold serial dilution starting at 30 μM
T1 construct: Full length with C-terminal GST tag, MW=79.9 kDa; GST (C); host or cells: Sf9 insect cells, baculovirus expression system

Human HDAC6 = target: T2, Human HDAC6 (Homo sapiens, UniProt Q9UBN7); assay: HDAC isoform inhibition, HDAC6; assay type: biochemical; settings: for IC50: duplicate 10-dose IC50 mode, 3-fold serial dilution starting at 30 μM; for Selectivity HDAC1/HDAC6: ratio of HDAC1 IC50 to HDAC6 IC50
T2 construct: Full length with N-terminal GST tag, MW=159 kDa; GST (N); host or cells: Sf9 insect cells, baculovirus expression system
T2 sequence (Q9UBN7 1-1215): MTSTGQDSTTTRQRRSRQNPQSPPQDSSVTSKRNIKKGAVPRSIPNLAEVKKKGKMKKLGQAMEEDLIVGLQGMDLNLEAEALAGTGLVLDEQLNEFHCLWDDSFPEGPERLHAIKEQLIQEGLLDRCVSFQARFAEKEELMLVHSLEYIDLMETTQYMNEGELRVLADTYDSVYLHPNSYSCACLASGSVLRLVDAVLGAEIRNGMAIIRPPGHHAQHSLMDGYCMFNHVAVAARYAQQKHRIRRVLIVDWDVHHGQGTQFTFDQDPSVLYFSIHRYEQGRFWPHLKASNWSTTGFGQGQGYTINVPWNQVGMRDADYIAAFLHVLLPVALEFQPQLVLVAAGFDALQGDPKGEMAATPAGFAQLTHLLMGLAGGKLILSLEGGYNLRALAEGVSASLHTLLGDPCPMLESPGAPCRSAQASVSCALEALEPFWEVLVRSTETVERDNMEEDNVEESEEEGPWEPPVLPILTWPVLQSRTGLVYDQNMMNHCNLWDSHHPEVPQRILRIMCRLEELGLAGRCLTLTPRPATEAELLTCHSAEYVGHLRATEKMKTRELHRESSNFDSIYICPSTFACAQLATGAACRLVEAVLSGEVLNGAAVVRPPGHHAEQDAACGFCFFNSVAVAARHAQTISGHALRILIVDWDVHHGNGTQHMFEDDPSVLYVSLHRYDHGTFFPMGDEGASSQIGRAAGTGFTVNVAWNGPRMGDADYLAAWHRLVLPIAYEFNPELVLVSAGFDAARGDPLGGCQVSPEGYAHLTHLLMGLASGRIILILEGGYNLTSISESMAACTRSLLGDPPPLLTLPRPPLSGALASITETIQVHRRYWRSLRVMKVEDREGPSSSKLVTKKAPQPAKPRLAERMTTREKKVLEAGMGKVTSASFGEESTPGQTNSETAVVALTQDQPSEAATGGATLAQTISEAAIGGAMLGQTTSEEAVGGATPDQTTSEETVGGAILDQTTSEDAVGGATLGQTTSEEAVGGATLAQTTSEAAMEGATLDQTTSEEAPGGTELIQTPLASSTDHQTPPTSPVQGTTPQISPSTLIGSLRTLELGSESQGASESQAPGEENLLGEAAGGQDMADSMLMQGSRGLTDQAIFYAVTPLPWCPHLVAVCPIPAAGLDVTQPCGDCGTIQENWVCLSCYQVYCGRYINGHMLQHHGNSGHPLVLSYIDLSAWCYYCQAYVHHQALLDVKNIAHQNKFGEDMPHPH

[1] = system: Human melanoma WM164 cells; assay: Immunoblot of acetylated tubulin in WM164 cells; assay type: cell-based; settings: different concentrations, presence or absence of IL-6 (30 ng/uL) or IFNg (100 ng/uL)
Procedure: Human Melanoma cells WM164 were cultured in RPMI 1640 media, supplemented with 10% FBS, penicillin/streptomycin (50 U/ml), L-glutamine (2 mM), and 2-mercaptoethanol (50 μM) (complete media), and grown under humidified conditions at 37° C. and 5% CO2.
The cells were lysed in a buffer containing 280 mM NaCl, 50 mM Tris HCL PH 8.0, 0.5% Igepal, 5 mM MgCl2, 10% glycerol and 1× protease inhibitor (Roche), phosphatase inhibitor (Santa Cruz Biotechnology). Lysates were sonicated on ice for […] (2 cycles of 30 s on, 30 s rest) and then mixed with 6× gel loading buffer and boiled for 5 minutes. Samples were then resolved on 10% or 4-15% gradient gels and transferred to nitrocellulose membranes. Membranes were blocked with 5% milk-PBS-Tween. Bands were detected by scanning blots with an LI-COR Odyssey imaging system using both 700 and 800 channels. The antibodies used for immunobloting included Anti-acetyl-α-Tubulin (SC-23950) and anti-α-Tubulin (SC-32293), which were purchased from Santa Cruz Biotechnology. Anti-HDAC6 (C0226) was from Assay Biotech. Anti-GAPDH (68795) was from Sigma Aldrich. Anti STAT3 (12640), anti P-STAT3 Y-705 (9138), anti P-STAT3 S727 (9136), and anti Acetil-STAT3 (2523) were purchased from Cell signaling. Anti PD-L1 (PA5-28115) was obtained from Thermo Scientific. Anti-FLAG (F1804) antibody was from Sigma. […]

[2] = system: Human melanoma WM164 cells; assay: HDAC assay in WM164 cells; assay type: cell-based; settings: different concentrations
[3] = system: Human melanoma WM164 cells; assay: Cytotoxicity assay (CellTox) in WM164 cells; assay type: cell-based; settings: different concentrations, 24 hour reading
Procedure: All cells were cultured in RPMI 1640 media, supplemented with 10% FBS, penicillin/streptomycin (50 U/ml), L-glutamine (2 mM), and 2-mercaptoethanol ([…]) (complete media), and grown under humidified conditions at 37° C. and 5% CO2.
Cells were plated at a desired density in a black, flat clear bottom, 96 well plate. After 24 hours of cell growth, the media was removed from all the wells, fresh media was added with the fluorescent CellTox dye, using the manufactured protocol. The plate was then treated with the compounds of interest at the various concentrations of the compound. Immediately after plating, a baseline reading was performed. The plate was then incubated for 24 hours before the next reading was done, which was considered the 24 hour reading. Assay measurements were collected using the SoftMax Pro Microplate Data Acquisition and Analysis Software paired with Molecular Devices spectrophotometer (SpectraMax).
Human melanoma WM164 cells were treated with different concentrations SS-2-08 and SS-01-100 to evaluate the HDAC activity associated with the potential cytotoxic effect of these compounds.

[4] = system: Murine melanoma SM1 cells; assay: ApoTox-Glo Triplex Assay, apoptosis; assay type: cell-based
Procedure: Murine melanoma SM1 cells were cultured in RPMI 1640 medium supplemented with: 1% minimum essential medium (MEM) non-essential amino acids solution, 10% fetal bovine serum (FBS), and 1% penicillin-streptomycin (P/S) then grown under humidified conditions at 37° C. and 5% CO2.
The assay controls—Digitonin (D141-100MG), Ionomycin (I064-1MG) and Mitomycin C (M4287-2MG)—were purchased from Sigma. Through a control plate evaluation, the optimal control concentration was selected for HDACi on the compound plates—30 μg/mL Digitonin, 100 μM Ionomycin, and 25 μg/mL Mitomycin.
Murine melanoma cells were treated with individual HDACi along with the protocol recommended assay controls. Following the manufacturers protocol, Viability/Cytotoxity reagents were added—fluorescence was measured at […] 400Ex/505Em (viability) and 485Ex/520Em (cytotoxicity). Next, the Caspase 3/7 reagent was added, after incubation, luminescence was measured at Lm578 (apoptosis). Assay measurements were collected using the SpectraMax. During analysis, LBH is used as the control compound.

[5] = system: Salmonella typhimurium (TA98 and TA1537); assay: Mini-Ames test; assay type: cell-based; settings: two Salmonella typhimurium strains, presence and absence of S9 mix
Procedure: […]. SS-2-08 was incubated with two strains of Salmonella typhimurium (TA98 and TA1537) in the presence and absence of mammalian microsomal enzymes (S9 mix) to investigate the possible mutagenicity of this compound. […].

[6] = Liver microsomal stability, human; assay type: in vitro ADME; settings: human liver microsomes
hERG = hERG (Homo sapiens, UniProt Q12809); assay: cell-based
[7] = Liver microsomal stability, mouse; assay type: in vitro ADME; settings: mouse liver microsomes
SM1 melanoma tumor = assay: Syngeneic SM1 murine melanoma tumor model; assay type: in vivo, C57/BL/6 mice; settings: 25 mg/kg and 50 mg/kg intraperitoneally, three times a week
Procedure: Animal experiments involving mice were performed in accordance to all approved protocols by the IACUC at The George Washington University. C57/BL/6 mice were obtained from Charles River (Massachusetts-Wilmington, USA). Mice for the in vivo tumor studies were subcutaneously injected in the right flank with 1.0×10^6 SM1 melanoma cells suspended in 100 μL 1× Phosphate Buffer Saline (PBS). After subcutaneous injection, tumor growth was monitored until they became palpable. Once palpable (5-8 mm in diameter), the animals were then treated with a vehicle control, or SS-2-08 at a dose of 25 mg/kg and 50 mg/kg, intraperitoneally, three times a week. Tumor growth was recorded twice a week. When the tumors reached 4000 mm^3, mice were euthanized. The values collected are represented as the mean tumor volume (mm^3) and standard deviation for treatment groups.

[8] = Hepatocyte stability, human; assay type: in vitro ADME; settings: human hepatocytes
[9] = Hepatocyte stability, mouse; assay type: in vitro ADME; settings: mouse hepatocytes

T1 sequence (Q13547 whole entry, canonical isoform): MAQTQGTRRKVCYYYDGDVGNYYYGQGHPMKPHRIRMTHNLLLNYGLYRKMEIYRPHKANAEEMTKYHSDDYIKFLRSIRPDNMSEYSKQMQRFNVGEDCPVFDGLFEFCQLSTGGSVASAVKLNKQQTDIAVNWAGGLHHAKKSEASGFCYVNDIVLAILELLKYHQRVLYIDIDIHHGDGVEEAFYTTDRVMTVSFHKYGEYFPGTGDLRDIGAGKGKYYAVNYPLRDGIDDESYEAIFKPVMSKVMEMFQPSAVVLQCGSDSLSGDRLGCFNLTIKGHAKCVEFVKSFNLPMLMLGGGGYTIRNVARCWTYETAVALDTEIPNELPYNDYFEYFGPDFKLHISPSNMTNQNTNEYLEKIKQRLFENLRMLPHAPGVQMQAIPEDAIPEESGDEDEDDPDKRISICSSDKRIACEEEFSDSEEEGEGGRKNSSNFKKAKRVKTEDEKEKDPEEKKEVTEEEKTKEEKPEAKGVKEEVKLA
hERG, sequence (Q12809 whole entry): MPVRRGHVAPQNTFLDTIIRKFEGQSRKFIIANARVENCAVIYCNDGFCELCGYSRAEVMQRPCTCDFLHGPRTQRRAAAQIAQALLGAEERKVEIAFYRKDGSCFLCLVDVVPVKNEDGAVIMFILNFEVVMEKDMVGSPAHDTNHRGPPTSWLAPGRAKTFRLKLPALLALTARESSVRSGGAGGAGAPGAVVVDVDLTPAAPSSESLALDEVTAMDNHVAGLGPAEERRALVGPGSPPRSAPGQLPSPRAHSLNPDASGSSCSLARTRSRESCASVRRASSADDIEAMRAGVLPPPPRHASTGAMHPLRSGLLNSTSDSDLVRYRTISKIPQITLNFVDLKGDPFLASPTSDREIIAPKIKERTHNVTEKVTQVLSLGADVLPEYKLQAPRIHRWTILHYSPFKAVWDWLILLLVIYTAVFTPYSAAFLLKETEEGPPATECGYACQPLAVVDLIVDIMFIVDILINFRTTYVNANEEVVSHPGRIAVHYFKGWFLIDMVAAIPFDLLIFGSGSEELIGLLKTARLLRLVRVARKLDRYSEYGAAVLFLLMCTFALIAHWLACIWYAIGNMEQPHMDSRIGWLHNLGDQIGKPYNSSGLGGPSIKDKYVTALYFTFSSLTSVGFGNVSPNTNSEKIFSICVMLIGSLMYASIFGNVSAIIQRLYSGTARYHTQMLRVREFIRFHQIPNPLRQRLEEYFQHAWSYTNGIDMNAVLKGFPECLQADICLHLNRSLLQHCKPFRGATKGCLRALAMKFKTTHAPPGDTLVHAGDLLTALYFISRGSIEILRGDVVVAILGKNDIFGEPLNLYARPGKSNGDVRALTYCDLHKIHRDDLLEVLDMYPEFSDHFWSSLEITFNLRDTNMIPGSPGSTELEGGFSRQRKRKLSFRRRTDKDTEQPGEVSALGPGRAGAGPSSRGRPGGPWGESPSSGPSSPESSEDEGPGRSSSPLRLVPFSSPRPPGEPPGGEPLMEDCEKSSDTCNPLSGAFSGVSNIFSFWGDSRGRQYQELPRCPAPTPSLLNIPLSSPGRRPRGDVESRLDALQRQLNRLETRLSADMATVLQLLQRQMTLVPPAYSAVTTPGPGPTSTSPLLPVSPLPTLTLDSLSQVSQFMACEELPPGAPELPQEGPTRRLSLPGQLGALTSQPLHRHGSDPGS

IC50 (Human HDAC6) | IC50 (Human HDAC1) | Selectivity HDAC1/HDAC6 (Human HDAC6) | Structure (SMILES) | further results
1340 nM |  |  | O=C(NO)c1cc(CCCCN2c3ccc(Cl)cc3CCc3cc(Cl)ccc32)on1 [SS-1-54, 5-(4-(2,8-dichloro-10,11-dihydro-5H-dibenzo[bf]azepin-5-yl)butyl)-N-hydroxyisoxazole-3-carboxamide] | IC50 (nM) HDAC1 (Human HDAC1): No inhibition
194 nM |  |  | O=C(NCCc1cc(C(=O)NO)no1)c1ccccc1 [SS-1-100, 5-(2-Benzamidoethyl)-N-hydroxyisoxazole-3-carboxamide] | levels of acetylated tubulin [1]: increased; IC50 (nM) HDAC1 (Human HDAC1): No inhibition; HDAC activity [2]: reduced the HDAC activity in a dose-dependent manner; cytotoxicity [3]: minimal cytotoxicity effects
 |  |  | O=C(NCCc1cc(C(=O)NO)no1)c1ccc(Cl)c(Cl)c1 [SS-2-08, 5-(2-(3,4-dichlorobenzamido)ethyl)-N-hydroxyisoxazole-3-carboxamide] | apoptosis (Caspase 3/7) [4]: does not induce apoptosis; Mini-Ames test [5]: No significant number of revertant colonies; also recorded: Negative; levels of acetylated tubulin [1]: increased; Liver microsomal stability (t1/2 min, with NADPH) Human [6]: 2.25 h; pIC50 (hERG): < 4.52; Liver microsomal stability (t1/2 min, with NADPH) Mouse [7]: 0.617 h; tumor growth (SM1 melanoma tumor): reduces in vivo tumor growth; Hepatocyte stability (t1/2 min) Human [8]: 1.8 h; HDAC activity [2]: reduced the HDAC activity in a dose-dependent manner; Hepatocyte stability (t1/2 min) Mouse [9]: 0.367 h; cytotoxicity [3]: minimal cytotoxicity effects
10.3 nM | 3030 nM | 294 | O=C(NCCc1cc(C(=O)NO)no1)c1ccc2ccccc2c1 [SS-3-66, 5-(2-(2-naphthamido)ethyl)-N-hydroxyisoxazole-3-carboxamide] | 
24.1 nM | 2040 nM | 85 | O=C(NCCc1cc(C(=O)NO)no1)c1cccc(-c2ccccc2)c1 [SS-3-67, 5-(2-([1,1′-biphenyl]-3-ylcarboxamido)ethyl)-N-hydroxyisoxazole-3-carboxamide] | 
693 nM | 11200 nM | 16 | O=C(NO)c1cc(CCCCn2ccc3cc(Cl)c(Cl)cc32)on1 [SS-3-94, 5-(4-(5,6-dichloro-1H-indol-1-yl)butyl)-N-hydroxyisoxazole-3-carboxamide] | 
1990 nM | 44000 nM | 22 | O=C(NO)c1cc(CCCCN2CCCc3cc(Cl)ccc32)on1 [SS-4-01, 5-(4-(6-chloro-3,4-dihydroquinolin-1(2H)-yl)butyl)-N-hydroxyisoxazole-3-carboxamide] | 
4360 nM | 174000 nM | 40 | CC1(C)CCN(CCCCc2cc(C(=O)NO)no2)c2ccc(Cl)cc21 [SS-4-02, 5-(4-(6-chloro-4,4-dimethyl-3,4-dihydroquinolin-1(2H)-yl)butyl)-N-hydroxyisoxazole-3-carboxamide] | 
195 nM |  |  | O=C(NO)c1cc(CCCOc2ccc(Cl)c(Cl)c2)on1 [SS-4-10, 5-(3-(3,4-dichlorophenoxy)propyl)-N-hydroxyisoxazole-3-carboxamide] | 
